Data taken from patent US9056844B2, “4-substituted-3-benzyloxy-bicyclo[3.1.0]hexane compounds as mGluR 2/3 antagonists” (Eli Lilly and Company, priority 2010, dated 2015).

Key:
human mGlu6 receptor = target: T1, human mGlu6 receptor (Homo sapiens, UniProt O15303); assay: mGlu6 cAMP antagonist assay (reference agonist L-AP4); type: cell-based; settings: cAMP format
T1 construct: expressed in transfected cells; host or cells: AV12 cells, co-expressing rat EAAT1
Source text: (§1) FLIPR and cAMP Assays for mGlu Receptor Selectivity
(§2) The relative antagonist potencies of the compounds of the invention for the other human mGlu receptors can be assessed with either a cAMP assay or fluorometric calcium response assay (see for example Fell et al., JPET (in press)). Briefly, individual AV12 cell lines containing the rat EAAT1 glutamate transporter and stably expressing the human mGlu1, 2, 3, 4, 5, 6, & 8 receptors are used for these studies. The mGlu1 and 5 receptors are […], so they naturally signal through phospholipase C, producing a calcium flux response which can be used to measure receptor activation using a Fluorometric Imaging Plate Reader (FLIPR, Molecular Devices). The cell lines expressing the mGlu2, 3, 4, and 8 receptor are designed to express the Gα15 subunit so that these Gi-coupled receptors will generate a calcium flux response similar to the mGlu1 and 5 receptor expressing cell lines. The mGlu6 receptor is tested in a cAMP format using methods analogous to those developed for mGlu2 and mGlu3 above. These cell lines are maintained as previously described except that amounts of L-glutamine and selection agents (geneticin, hygromycin B, zeocin, and blasticidin) may vary depending on the cell line. Confluent cultures are passaged biweekly.
Antagonist activity in mGlu6 cells is measured using cAMP in a method analogous to that described above for mGlu2 and mGlu3 activity, except that the reference agonist was L-AP4 (Tocris). […] Relative IC50 and EC50 values are calculated from the top-bottom range of the concentration response curve using a four-parameter logistic curve fitting program (ActivityBase v5.3.1.22).

human mGlu5 receptor = target: T2, human mGlu5 receptor (Homo sapiens, UniProt P41594); assay: FLIPR calcium assay for mGlu receptor selectivity, mGlu5 antagonist mode; type: cell-based; settings: inhibition of EC90 glutamate response, read-out: mGlu5 % inhib. @12.5 μM
T2 construct: expressed in transfected cells; host or cells: AV12 cells, co-expressing rat EAAT1
T2 sequence (P41594 19-1212 limits assumed): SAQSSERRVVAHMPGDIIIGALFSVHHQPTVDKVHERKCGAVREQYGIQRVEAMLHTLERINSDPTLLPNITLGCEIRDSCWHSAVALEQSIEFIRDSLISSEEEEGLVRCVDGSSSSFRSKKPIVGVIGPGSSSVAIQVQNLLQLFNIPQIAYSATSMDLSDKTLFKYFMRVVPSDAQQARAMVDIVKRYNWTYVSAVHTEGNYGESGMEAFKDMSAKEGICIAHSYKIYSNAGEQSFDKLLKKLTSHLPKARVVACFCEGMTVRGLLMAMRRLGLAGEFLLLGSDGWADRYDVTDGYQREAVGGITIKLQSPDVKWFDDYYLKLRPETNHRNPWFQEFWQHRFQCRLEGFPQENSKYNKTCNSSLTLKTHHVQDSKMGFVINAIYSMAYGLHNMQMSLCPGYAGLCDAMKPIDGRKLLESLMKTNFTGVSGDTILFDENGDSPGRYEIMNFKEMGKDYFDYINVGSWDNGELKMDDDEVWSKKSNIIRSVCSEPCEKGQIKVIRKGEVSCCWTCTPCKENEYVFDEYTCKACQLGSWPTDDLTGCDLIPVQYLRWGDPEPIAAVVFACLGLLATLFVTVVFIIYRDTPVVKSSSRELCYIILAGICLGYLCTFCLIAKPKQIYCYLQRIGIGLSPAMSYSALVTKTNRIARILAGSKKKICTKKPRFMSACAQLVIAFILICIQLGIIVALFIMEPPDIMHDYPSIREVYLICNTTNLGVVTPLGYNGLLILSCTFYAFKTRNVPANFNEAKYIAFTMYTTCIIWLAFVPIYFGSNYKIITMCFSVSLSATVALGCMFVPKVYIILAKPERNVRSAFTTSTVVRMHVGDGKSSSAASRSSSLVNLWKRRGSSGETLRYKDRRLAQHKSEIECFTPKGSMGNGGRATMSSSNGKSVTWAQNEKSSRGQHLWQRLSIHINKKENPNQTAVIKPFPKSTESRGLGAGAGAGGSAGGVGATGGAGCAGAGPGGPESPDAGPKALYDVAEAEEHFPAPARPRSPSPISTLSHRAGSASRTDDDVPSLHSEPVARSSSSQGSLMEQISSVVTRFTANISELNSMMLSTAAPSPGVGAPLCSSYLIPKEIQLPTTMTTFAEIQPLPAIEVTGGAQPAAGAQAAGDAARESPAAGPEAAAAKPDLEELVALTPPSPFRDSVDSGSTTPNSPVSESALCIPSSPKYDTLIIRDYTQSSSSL
Source text: as §1, §2
Intracellular calcium levels are monitored using FLIPR before and after the addition of test compounds and Fluo-3 AM (Invitrogen) or Calcium 4 (Molecular Devices) dye, depending on the cell line. Cells are plated 24 hours prior to assay in a variable concentration of glutamine and a variable density of cells per well, depending on the cell line. The medium is removed and the cells are incubated with 8 μM of dye (50 μl per well) for 90 or 120 minutes (depending on cell line) at 25° C. A single-addition FLIPR assay generating an 11-point concentration response curve for the agonist glutamate is conducted prior to each experiment to confirm the appropriate sensitivity of the cells. The results are analyzed using GraphPad Prism v4.03 to calculate the concentrations of glutamate needed to induce the EC90 (antagonist assay) and EC10 (potentiator assay) responses.
Compounds are tested at each mGlu receptor in a two-addition FLIPR assay using a 10-point concentration response profile starting at a final concentration of 25 μM for the agonist assay and 12.5 μM for the potentiator and antagonist assays. The first addition detects any agonist activity, and the second addition consists of 100 μl of select concentrations (depending on cell line) of glutamate in assay buffer generating an EC10 or EC90 glutamate response. Agonist effects are quantified as percent stimulation induced by compound alone relative to the maximal glutamate response. Antagonist effects are quantified by calculating the percent inhibition of the EC90 glutamate response caused by the compound. Potentiation effects are quantified as percent increase in the presence of an EC10 response in glutamate relative to the ECmax response. All data are calculated as relative IC50 or EC50 values using a four-parameter logistic curve fitting program (ActivityBase v5.3.1.22).

human mGlu2 receptors = target: T3, human mGlu2 receptors (Homo sapiens, UniProt Q14416); assay: mGlu2 receptor cAMP antagonist assay; type: cell-based; settings: reversal of DCG IV (EC90) inhibition of forskolin-stimulated cAMP; AV12 cells
T3 construct: expressed in transfected cells; host or cells: AV12 cells, co-expressing rat EAAT1
T3 sequence (Q14416 19-872): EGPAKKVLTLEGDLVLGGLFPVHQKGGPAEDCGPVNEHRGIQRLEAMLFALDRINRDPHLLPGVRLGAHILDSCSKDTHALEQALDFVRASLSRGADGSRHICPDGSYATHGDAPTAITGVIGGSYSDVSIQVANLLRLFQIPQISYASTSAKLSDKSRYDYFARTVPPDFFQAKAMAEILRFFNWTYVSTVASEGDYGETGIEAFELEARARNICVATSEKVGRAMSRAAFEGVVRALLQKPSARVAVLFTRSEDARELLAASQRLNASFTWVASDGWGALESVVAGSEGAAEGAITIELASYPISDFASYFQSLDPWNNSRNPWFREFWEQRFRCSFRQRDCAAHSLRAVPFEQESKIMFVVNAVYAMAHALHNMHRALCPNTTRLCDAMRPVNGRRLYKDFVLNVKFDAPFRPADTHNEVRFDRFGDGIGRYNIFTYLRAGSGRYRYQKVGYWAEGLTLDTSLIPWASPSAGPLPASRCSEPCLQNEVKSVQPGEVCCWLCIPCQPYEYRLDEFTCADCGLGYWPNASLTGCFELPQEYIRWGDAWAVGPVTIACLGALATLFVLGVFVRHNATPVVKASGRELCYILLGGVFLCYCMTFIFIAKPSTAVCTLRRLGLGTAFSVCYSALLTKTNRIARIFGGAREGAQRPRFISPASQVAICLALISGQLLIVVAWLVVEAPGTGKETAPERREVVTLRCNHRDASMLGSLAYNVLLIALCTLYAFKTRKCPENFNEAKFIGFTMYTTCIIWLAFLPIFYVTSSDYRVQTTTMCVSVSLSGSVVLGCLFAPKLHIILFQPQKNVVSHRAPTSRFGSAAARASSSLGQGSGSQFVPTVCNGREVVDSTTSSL
Experimental: mGlu2 and mGlu3 Receptor cAMP Antagonist Assays
Antagonist activity is assayed in recombinant AV12 cells stably expressing human mGlu2 or mGlu3 receptors and the rat glutamate transporter EAAT1 (Excitatory Amino Acid Transporter 1). The cell lines are maintained by culturing in DMEM with high glucose and pyridoxine hydrochloride supplemented with 5% dialyzed fetal bovine serum (FBS), 1 mM sodium pyruvate, 1 mM HEPES and 1 mM L-glutamine; geneticin and hygromycin B are used as selection antibiotics.
Reversal of the inhibition of forskolin-stimulated cAMP production by test compounds is measured using homogeneous time resolved fluorescence technology (HTRF; Cisbio cat #62AM4PEB). The medium is removed and the cells are incubated with 100 μl cAMP stimulation buffer (STIM) for 30 minutes at 37° C. […] Cells are incubated at 37° C. for 20 minutes. To measure the cAMP levels, cAMP-d2 conjugate and anti cAMP-cryptate conjugate in lysis buffer are incubated with the treated cells at room temperature for 1 hour (mGlu2) or 1.5 hour (mGlu3). […] The raw data are converted to cAMP amount (pmole/well) using a cAMP standard curve generated for each experiment. Relative IC50 values are calculated from the top-bottom range of the concentration response curve using a four-parameter logistic curve fitting program (ActivityBase v5.3.1.22).

male NIH-Swiss mice = assay: Forced-swim test in mice (mFST); type: in vivo, mouse; settings: for ED60: Mus musculus, ip, immobility in last 4 min of 6 min; for Maximal Decrease (1 − compound/control) * 100%: i.p., immobility time
Source text: Forced-Swim Test in Mice (mFST)
mFST is an established in vivo assay for antidepressant activity (Li et al. J Pharmacol Exp Ther. 319(1):254-9, 2006.). […] The mFST was used to evaluate potential antidepressant-like activity of novel mGlu2/3 antagonists essentially as described in previously published methods (see for example, Li et al. J Pharmacol Exp Ther. 319(1):254-9, 2006.). Briefly, male NIH-Swiss mice (Harlan Sprague-Dawley, Indianapolis, Ind.) weighing between 25-30 g are used. Group housed animals are removed from the vivarium to the testing area in their own cages and allowed to adapt to the new environment for at least 1 hour before testing. Compounds where R^1 and R^2 are both hydrogen are dissolved in water with minimal NaOH added for dissolution and are administered i.p. Compounds where R^1 and/or R^2 are other than hydrogen are prepared on the day of use in 2.0-2.5% N-methyl-pyrrolidinone and then suspended in 1% HEC, 0.25% Tween 80, and 0.05% Dow antifoam, and administered orally. Mice are placed in a cylinder (diameter: 10 cm; height: 25 cm) filled with 6 cm of water (22-25° C.) for 6 min. The duration of immobility during the last 4 min. of the 6 min. period of the test was scored. A mouse is recorded as immobile when floating motionless or making only those movements necessary to keep its head above water.

T1 sequence (O15303 25-877): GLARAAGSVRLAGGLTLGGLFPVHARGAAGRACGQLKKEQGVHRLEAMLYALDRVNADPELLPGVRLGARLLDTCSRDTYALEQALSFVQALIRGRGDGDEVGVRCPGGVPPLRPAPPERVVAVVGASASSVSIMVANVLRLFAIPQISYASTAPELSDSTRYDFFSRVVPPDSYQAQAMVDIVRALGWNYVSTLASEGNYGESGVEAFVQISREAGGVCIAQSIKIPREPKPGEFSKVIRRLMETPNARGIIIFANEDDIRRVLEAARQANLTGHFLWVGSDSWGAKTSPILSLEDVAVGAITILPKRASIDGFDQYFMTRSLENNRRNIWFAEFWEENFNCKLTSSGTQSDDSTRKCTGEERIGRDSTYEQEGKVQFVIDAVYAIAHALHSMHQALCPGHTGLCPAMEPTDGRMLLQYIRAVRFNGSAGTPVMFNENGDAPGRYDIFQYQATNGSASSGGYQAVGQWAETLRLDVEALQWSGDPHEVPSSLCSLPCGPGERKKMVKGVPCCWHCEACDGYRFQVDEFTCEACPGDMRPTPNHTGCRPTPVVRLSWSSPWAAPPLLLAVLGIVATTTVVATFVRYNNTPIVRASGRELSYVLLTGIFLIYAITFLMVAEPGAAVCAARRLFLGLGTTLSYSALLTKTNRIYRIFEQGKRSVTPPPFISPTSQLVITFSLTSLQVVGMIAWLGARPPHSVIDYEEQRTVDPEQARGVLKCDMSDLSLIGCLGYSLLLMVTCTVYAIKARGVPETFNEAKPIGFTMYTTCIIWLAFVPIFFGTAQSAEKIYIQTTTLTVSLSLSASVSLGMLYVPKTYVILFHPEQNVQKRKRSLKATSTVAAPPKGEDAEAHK

Structure (SMILES): N[C@]1(C(=O)O)[C@@H]2[C@@H](C(=O)O)[C@@H]2[C@H](O)[C@H]1OCc1ccc(Cl)c(Cl)c1 [Example 1, (1S,2R,3S,4S,5R,6R)-2-Amino-3-[(3,4-dichlorobenzyl)oxy]-4-hydroxybicyclo[3.1.0]hexane-2,6-dicarboxylic acid]
- IC50 (human mGlu6 receptor): 3.3 µM
- inhibition at 12.5 µM (human mGlu5 receptor): 4.8%
- IC50 (human mGlu2 receptors): 0.0433 ± 0.0058 µM
- ED60 (male NIH-Swiss mice): 1 mg/kg
- Maximal Decrease (1 − compound/control) * 100% (male NIH-Swiss mice): 59%

Structure (SMILES): N[C@]1(C(=O)O)[C@@H]2[C@@H](C(=O)O)[C@@H]2[C@H](Sc2nc[nH]n2)[C@H]1OCc1ccc(Cl)c(Cl)c1 [Example 2, (1R,2R,3S,4S,5R,6R)-2-Amino-3-[(3,4-dichlorobenzyl)oxy]-4-(1H-1,2,4-triazol-3-ylsulfanyl)bicyclo[3.1.0]hexane-2,6-dicarboxylic acid]
- IC50 (human mGlu6 receptor): 1.29 ± 0.162 µM
- inhibition at 12.5 µM (human mGlu5 receptor): -12.9%
- IC50 (human mGlu2 receptors): 0.0131 ± 0.0019 µM
- ED60 (male NIH-Swiss mice): 2.08 mg/kg
- Maximal Decrease (1 − compound/control) * 100% (male NIH-Swiss mice): 62%

Structure (SMILES): CC(=O)N[C@H]1[C@H]2[C@H](C(=O)O)[C@H]2[C@](N)(C(=O)O)[C@@H]1OCc1ccc(Cl)c(Cl)c1 [Example 4, (1S,2R,3R,4S,5R,6S)-4-(Acetylamino)-2-amino-3-[(3,4-dichlorobenzyl)oxy]bicyclo[3.1.0]hexane-2,6-dicarboxylic acid]
- IC50 (human mGlu6 receptor): 2.64 ± 0.424 µM
- inhibition at 12.5 µM (human mGlu5 receptor): 22.6%
- IC50 (human mGlu2 receptors): 0.0255 ± 0.0028 µM
- ED60 (male NIH-Swiss mice): 9.5 mg/kg
- Maximal Decrease (1 − compound/control) * 100% (male NIH-Swiss mice): 38%

Structure (SMILES): Cl.Cn1cnc(S[C@H]2[C@H]3[C@H](C(=O)O)[C@H]3[C@](N)(C(=O)O)[C@@H]2OCc2ccc(Cl)c(Cl)c2)n1 [Example 7, (1R,2R,3S,4S,5R,6R)-2-Amino-3-[(3,4-dichlorophenyl)methoxy]-4-[(1-methyl-1,2,4-triazol-3-yl)sulfanyl]bicyclo[3.1.0]hexane-2,6-dicarboxylic acid hydrochloride.]
- IC50 (human mGlu6 receptor): 3.69 µM
- inhibition at 12.5 µM (human mGlu5 receptor): 22.7%
- IC50 (human mGlu2 receptors): 0.052 ± 0.0179 µM
- ED60 (male NIH-Swiss mice): > 10 mg/kg
- Maximal Decrease (1 − compound/control) * 100% (male NIH-Swiss mice): 18%

Structure (SMILES): Cl.N[C@]1(C(=O)O)[C@@H]2[C@@H](C(=O)O)[C@@H]2[C@H](NC(=O)CO)[C@H]1OCc1ccc(Cl)c(Cl)c1 [Example 9, (1S,2R,3R,4S,5R,6S)-2-Amino-3-[(3,4-dichlorobenzyl)oxy]-4-[(hydroxyacetyl)amino]bicyclo[3.1.0]hexane-2,6-dicarboxylic acid hydrochloride]
- IC50 (human mGlu6 receptor): 2.82 µM
- inhibition at 12.5 µM (human mGlu5 receptor): 13.8%
- IC50 (human mGlu2 receptors): 0.022 ± 0.003 µM
- ED60 (male NIH-Swiss mice): 9.68 mg/kg
- Maximal Decrease (1 − compound/control) * 100% (male NIH-Swiss mice): 41%
